We go through 20 molecules from patent US8574563B2 (Bristol-Myers Squibb Company, priority 2006, dated 2013).

In the experiment the test system is HCV 1b-377-neo replicon cells. In words: HCV replicon assay, HCV 1b-377-neo replicon cells (1b FRET). It counts as cell-based, Hepatitis C virus genotype 1b. The conditions noted are these: Hepatitis C virus, HCV 1b-377-neo replicon cells; HCV 1b genotype; read-out: EC50 range against HCV 1b (Table 2, Range). In a few lines: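 Compounds tested in HCV genotype 1b-377-neo replicon cells with a FRET read-out. Cells resistant to a reference NS5A inhibitor through a Y2065H NS5A mutation were run alongside wild-type cells.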
In general terms: A replicon is a self-replicating genome or part of one, used to study replication in cells.

As for `C[C@H](NC(=O)[C@@H](c1ccccc1)N(C)C)c1ncc(-c2cnc(-c3ccc(-c4cnc([C@@H]5CCCN5C(=O)[C@@H](c5ccccc5)N(C)C)[nH]4)cc3)nc2)[nH]1` [Example 152j-16, (2R)-2-(dimethylamino)-N-((1S)-1-(5-(2-(4-(2-((2S)-1-((2R)-2-(dimethylamino)-2-phenylacetyl)-2-pyrrolidinyl)-1H-imidazol-5-yl)phenyl)-5-pyrimidinyl)-1H-imidazol-2-yl)ethyl)-2-phenylacetamide], the half-maximal effective concentration (EC50) (in general, the concentration at which the effect is half-maximal) is 0.001 to 0.999 nM.

With `COC(=O)N[C@@H](C(=O)N[C@@H](C)c1ncc(-c2cnc(-c3ccc(-c4cnc([C@@H]5CCCN5C(=O)[C@H](NC(=O)OC)c5ccccc5)[nH]4)cc3)nc2)[nH]1)c1ccccc1` [Example 152j-17, methyl ((1R)-2-((2S)-2-(5-(4-(5-(2-((1S)-1-(((2R)-2-((methoxycarbonyl)amino)-2-phenylacetyl)amino)ethyl)-1H-imidazol-5-yl)-2-pyrimidinyl)phenyl)-1H-imidazol-2-yl)-1-pyrrolidinyl)-2-oxo-1-phenylethyl)carbamate], the EC50 lay in the range of 0.001 to 0.999 nM.

For the molecule `C[C@H](NC(=O)[C@@H](c1ccccc1)N(C)C)c1ncc(-c2cnc(-c3ccc(-c4cnc([C@@H]5CCCN5C(=O)[C@@H](c5ccccc5)N(C)C)[nH]4)cc3)cn2)[nH]1` [Example 152j-18, (2R)-2-(dimethylamino)-N-((1S)-1-(5-(5-(4-(2-((2S)-1-((2R)-2-(dimethylamino)-2-phenylacetyl)-2-pyrrolidinyl)-1H-imidazol-5-yl)phenyl)-2-pyrazinyl)-1H-imidazol-2-yl)ethyl)-2-phenylacetamide], the EC50 lay within 0.001 to 0.999 nM.

Take `COC(=O)N[C@@H](C(=O)N[C@@H](C)c1ncc(-c2cnc(-c3ccc(-c4cnc([C@@H]5CCCN5C(=O)[C@H](NC(=O)OC)c5ccccc5)[nH]4)cc3)cn2)[nH]1)c1ccccc1` [Example 152j-19, methyl ((1R)-2-((2S)-2-(5-(4-(5-(2-((1S)-1-(((2R)-2-((methoxycarbonyl)amino)-2-phenylacetyl)amino)ethyl)-1H-imidazol-5-yl)-2-pyrazinyl)phenyl)-1H-imidazol-2-yl)-1-pyrrolidinyl)-2-oxo-1-phenylethyl)carbamate]: the EC50 was 0.001 to 0.999 nM.

Take `COC(=O)N[C@@H](C(=O)N(C)[C@@H](C)c1ncc(-c2ccc(-c3ncc(-c4cnc([C@@H]5CCCN5C(=O)[C@H](NC(=O)OC)c5ccccc5)[nH]4)cn3)cc2)[nH]1)c1ccccc1` [Example 152j-21, methyl ((1R)-2-((2S)-2-(5-(2-(4-(2-((1S)-1-(((2R)-2-((methoxycarbonyl)amino)-2-phenylacetyl)(methyl)amino)ethyl)-1H-imidazol-5-yl)phenyl)-5-pyrimidinyl)-1H-imidazol-2-yl)-1-pyrrolidinyl)-2-oxo-1-phenylethyl)carbamate]: the EC50 lay within 0.001 to 0.999 nM.

Turning to `COC(=O)N[C@@H](C(=O)N[C@@H](C)c1ncc(-c2ccc(-c3ccc(-c4cnc([C@@H]5CCCN5C(=O)[C@H](NC(=O)OC)c5ccccc5)[nH]4)cc3)nc2)[nH]1)c1ccccc1` [Example 152j-22, methyl ((1R)-2-((2S)-2-(5-(4-(5-(2-((1S)-1-(((2R)-2-((methoxycarbonyl)amino)-2-phenylacetyl)amino)ethyl)-1H-imidazol-5-yl)-2-pyridinyl)phenyl)-1H-imidazol-2-yl)-1-pyrrolidinyl)-2-oxo-1-phenylethyl)carbamate], the concentration giving a half-maximal response (EC50) lay in the range of 0.001 to 0.999 nM.

As to `COC(=O)N[C@@H](C(=O)N[C@@H](C)c1ncc(-c2ccc(-c3ccc(-c4cnc([C@H](C)NC(=O)[C@H](NC(=O)OC)c5ccccc5)[nH]4)cn3)cc2)[nH]1)c1ccccc1` [Example 152j-23, methyl ((1R)-2-(((1S)-1-(5-(6-(4-(2-((1S)-1-(((2R)-2-((methoxycarbonyl)amino)-2-phenylacetyl)amino)ethyl)-1H-imidazol-5-yl)phenyl)-3-pyridinyl)-1H-imidazol-2-yl)ethyl)amino)-2-oxo-1-phenylethyl)carbamate], the concentration for a half-maximal effect (EC50) was in the range of 0.001 to 0.999 nM.

In the case of `C[C@H](NC(=O)[C@@H](c1ccccc1)N(C)C)c1ncc(-c2ccc(-c3ccc(-c4cnc([C@H](C)NC(=O)[C@@H](c5ccccc5)N(C)C)[nH]4)cn3)cc2)[nH]1` [Example 152j-24, (2R)-2-(dimethylamino)-N-((1S)-1-(5-(6-(4-(2-((1S)-1-(((2R)-2-(dimethylamino)-2-phenylacetyl)amino)ethyl)-1H-imidazol-5-yl)phenyl)-3-pyridinyl)-1H-imidazol-2-yl)ethyl)-2-phenylacetamide], the concentration giving a half-maximal response (EC50) is 0.001 to 0.999 nM.

Regarding `COC(=O)N[C@@H](C(=O)N[C@@H](C)c1ncc(-c2ccc(-c3cnc(-c4cnc([C@@H]5CCCN5C(=O)[C@H](NC(=O)OC)c5ccccc5)[nH]4)cn3)cc2)[nH]1)c1ccccc1` [Example 152j-28, methyl ((1R)-2-((2S)-2-(5-(5-(4-(2-((1S)-1-(((2R)-2-((methoxycarbonyl)amino)-2-phenylacetyl)amino)ethyl)-1H-imidazol-5-yl)phenyl)-2-pyrazinyl)-1H-imidazol-2-yl)-1-pyrrolidinyl)-2-oxo-1-phenylethyl)carbamate], the EC50 lay within 0.001 to 0.999 nM.

For `COC(=O)N[C@@H](C(=O)N(C)[C@@H](C)c1ncc(-c2ccc(-c3ncc(-c4cnc([C@@H]5CCCN5C(=O)[C@@H](c5ccccc5)N5CCCCC5)[nH]4)cn3)cc2)[nH]1)c1ccccc1` [Example 152l-1, methyl ((1R)-2-(methyl((1S)-1-(4-(4-(5-(2-((2S)-1-((2R)-2-phenyl-2-(1-piperidinyl)acetyl)-2-pyrrolidinyl)-1H-imidazol-5-yl)-2-pyrimidinyl)phenyl)-1H-imidazol-2-yl)ethyl)amino)-2-oxo-1-phenylethyl)carbamate], the EC50 was 0.001 to 0.999 nM.

Take `COC(=O)N[C@@H](C(=O)N[C@@H](C)c1ncc(-c2ccc(-c3ncc(-c4cnc([C@@H]5CCCN5C(=O)[C@@H](c5ccccc5)N5CCCCC5)[nH]4)cn3)cc2)[nH]1)c1ccccc1` [Example 152l-2, methyl ((1R)-2-oxo-1-phenyl-2-(((1S)-1-(4-(4-(5-(2-((2S)-1-((2R)-2-phenyl-2-(1-piperidinyl)acetyl)-2-pyrrolidinyl)-1H-imidazol-5-yl)-2-pyrimidinyl)phenyl)-1H-imidazol-2-yl)ethyl)amino)ethyl)carbamate]: the EC50 is 0.001 to 0.999 nM.

In the case of `COC(=O)N[C@@H](C(=O)N1CCC[C@H]1c1ncc(-c2ccc(-c3ncc(-c4cnc([C@@H]5CCCN5C(=O)[C@@H](c5ccccc5)N5CCCCC5)[nH]4)cn3)cc2)[nH]1)c1ccccc1` [Example 152l-3], the EC50 was 0.001 to 0.999 nM.

Take `CN(C)[C@@H](C(=O)N1CCC[C@H]1c1ncc(-c2ccc(-c3ccc(-c4cnc([C@@H]5CCCN5C(=O)[C@@H](c5ccccc5)N(C)C)[nH]4)nn3)nn2)[nH]1)c1ccccc1` [Example 153c-1, (1R,1′R)-2,2′-(3,3′-bipyridazine-6,6′-diylbis(1H-imidazole-5,2-diyl(2S)-2,1-pyrrolidinediyl))bis(N,N-dimethyl-2-oxo-1-phenylethanamine)]: the EC50 was 1 to 99 nM.

On to `COC(=O)N[C@@H](C(=O)N1CCC[C@H]1c1ncc(-c2ccc(-c3ccc(-c4cnc([C@@H]5CCCN5C(=O)[C@H](NC(=O)OC)c5ccccc5)[nH]4)nn3)nn2)[nH]1)c1ccccc1` [Example 153c-2, dimethyl (3,3′-bipyridazine-6,6′-diylbis(1H-imidazole-5,2-diyl(2S)-2,1-pyrrolidinediyl((1R)-2-oxo-1-phenyl-2,1-ethanediyl)))biscarbamate], for which the EC50 fell in the range of 1 to 99 nM.

With `CN(C)[C@@H](C(=O)N1CCC[C@H]1c1ncc(-c2cnc(-c3ncc(-c4cnc([C@@H]5CCCN5C(=O)[C@@H](c5ccccc5)N(C)C)[nH]4)cn3)nc2)[nH]1)c1ccccc1` [Example 153c-3, (1R,1′R)-2,2′-(2,2′-bipyrimidine-5,5′-diylbis(1H-imidazole-5,2-diyl(2S)-2,1-pyrrolidinediyl))bis(N,N-dimethyl-2-oxo-1-phenylethanamine)], the concentration for a half-maximal effect (EC50) lay within 1000 to 10000 nM.

Turning to `COC(=O)N[C@@H](C(=O)N1CCC[C@H]1c1ncc(-c2cnc(-c3ncc(-c4cnc([C@@H]5CCCN5C(=O)[C@H](NC(=O)OC)c5ccccc5)[nH]4)cn3)nc2)[nH]1)c1ccccc1` [Example 153c-4, dimethyl (2,2′-bipyrimidine-5,5′-diylbis(1H-imidazole-5,2-diyl(2S)-2,1-pyrrolidinediyl((1R)-2-oxo-1-phenyl-2,1-ethanediyl)))biscarbamate], the EC50 lay within 1000 to 10000 nM.

On to `CN(C)[C@@H](C(=O)N1CCC[C@H]1c1ncc(-c2cnc(-c3cnc(-c4cnc([C@@H]5CCCN5C(=O)[C@@H](c5ccccc5)N(C)C)[nH]4)cn3)cn2)[nH]1)c1ccccc1` [Example 153c-5, (1R,1′R)-2,2′-(2,2′-bipyrazine-5,5′-diylbis(1H-imidazole-5,2-diyl(2S)-2,1-pyrrolidinediyl))bis(N,N-dimethyl-2-oxo-1-phenylethanamine)], for which the EC50 was 1 to 99 nM.

For the molecule `COC(=O)N[C@@H](C(=O)N1CCC[C@H]1c1ncc(-c2cnc(-c3cnc(-c4cnc([C@@H]5CCCN5C(=O)[C@H](NC(=O)OC)c5ccccc5)[nH]4)cn3)cn2)[nH]1)c1ccccc1` [Example 153c-6, dimethyl (2,2′-bipyrazine-5,5′-diylbis(1H-imidazole-5,2-diyl(2S)-2,1-pyrrolidinediyl((1R)-2-oxo-1-phenyl-2,1-ethanediyl)))biscarbamate], the 50% effective concentration (EC50) lay in the range of 1 to 99 nM.

In the case of `COC(=O)N[C@@H](C(=O)N[C@@H](C)c1ncc(-c2ccc(-c3ccc(-c4cnc([C@H](C)NC(=O)[C@H](NC(=O)OC)c5ccccc5)[nH]4)cn3)nc2)[nH]1)c1ccccc1` [Example 153c-7, dimethyl (2,2′-bipyridine-5,5′-diylbis(1H-imidazole-5,2-diyl(1S)-1,1-ethanediylimino((1R)-2-oxo-1-phenyl-2,1-ethanediyl)))biscarbamate], the EC50 lay in the range of 1 to 99 nM.

Take `COc1ccc(-c2ccc(-c3cnc([C@@H]4CCCN4C(=O)[C@@H](c4ccccc4)N(C)C)[nH]3)cc2)cc1-c1c[nH]c([C@@H]2CCCN2C(=O)[C@@H](c2ccccc2)N(C)C)n1` [Example D33, (1R,1′R)-2,2′-((4-methoxy-3,4′-biphenyldiyl)bis(1H-imidazole-5,2-diyl(2S)-2,1-pyrrolidinediyl))bis (N,N-dimethyl-2-oxo-1-phenylethanamine)]: the EC50 lay within 0.001 to 0.999 nM.
